Results reported in publication PMC11876601 (Molecular Systems Biology, 2025).
Read-outs that look alike come from different tables or passages of the source.

Experiments:
[1] = system: Colo-357 cells; assay: Drug combination viability screen (ATPlite, 72 h); assay type: cell-based, human; conditions: Bliss model
Procedure: (§1) Cell viability was assessed by measuring ATP levels to indicate metabolic activity.
(§2) Afterward, small amounts were transferred to 384-well intermediate plates (Greiner Bio-One GmbH, Germany). […] For drug combination screening, 1000 to 5000 cells were seeded into 384-well plates (CulturPlate™, Perkin Elmer, MA, USA) using a Multidrop™ Combi Reagent Dispenser (Thermo Scientific, MA, USA) in 50 µl medium per well 24 h prior to drug treatment (seeding densities see Appendix Table S1). […] The final DMSO concentration in each well was 0.2%. […] Eight wells per plate without library drug served as negative controls, and sixteen wells per plate containing 5 µM Staurosporine served as positive controls. Control plates not containing any drug were used to correct for incubation effects, and data quality was assessed by calculation of Z-prime of positive and negative controls according to1 Z-prime=1−3SDpos+3SDneg/[…] where SD is the standard deviation. […] Dose–response curves from the experimental and hypothetical data were compared, and shifts in AUC were used to describe combination effects (AUC∆ = AUChypothetical − AUCexperimental). […] Only combinations with R^2 > 0.8 in both conditions were considered in the synergy analysis.

[2] = system: HPDE (immortalized pancreatic duct cell line); assay: Drug combination viability screen (ATPlite, 72 h); assay type: cell-based, human; conditions: combination with GEM
Procedure: as §1, §2

[3] = system: AsPC-1; assay: cells; set-up: Viability of PDAC cell lines, ATPlite luminescence, 11-dose single-agent curve fit; conditions: Homo sapiens, ASPC1, 72 h, read-out: EC50 [nM]
Outline: (§3)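 screening used cells plated at 1000 to 5000 per well one day before treatment. Final DMSO was 0.2%. Each plate held untreated negative-control wells and 5 µM staurosporine positive-control wells.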

[4] = system: Colo-357; assay: cells; set-up: Viability of PDAC cell lines, ATPlite luminescence, 11-dose single-agent curve fit; conditions: Homo sapiens, COLO357, 72 h, read-out: EC50 [nM]
Outline: as §3

[5] = system: Capan-1; assay: cells; set-up: Viability of PDAC cell lines, ATPlite luminescence, 11-dose single-agent curve fit; conditions: Homo sapiens, CAPAN-1, 72 h, read-out: EC50 [nM]
Outline: as §3

[6] = system: Dan-G; assay: cells; set-up: Viability of PDAC cell lines, ATPlite luminescence, 11-dose single-agent curve fit; conditions: 72 h, read-out: EC50 [nM]
Outline: as §3

[7] = system: PANC-1; assay: cells; set-up: Viability of PDAC cell lines, ATPlite luminescence, 11-dose single-agent curve fit; conditions: Homo sapiens, PANC-1, 72 h, read-out: EC50 [nM]
Outline: as §3

[8] = system: HuP-T4; assay: cells; set-up: Viability of PDAC cell lines, ATPlite luminescence, 11-dose single-agent curve fit; conditions: Homo sapiens, HuP-T4, 72 h, read-out: EC50 [nM]
Outline: as §3

[9] = system: BxPC-3; assay: cells; set-up: Viability of PDAC cell lines, ATPlite luminescence, 11-dose single-agent curve fit; conditions: Homo sapiens, BXPC-3, 72 h, read-out: EC50 [nM]
Outline: as §3

[10] = system: PSN-1; assay: cells; set-up: Viability of PDAC cell lines, ATPlite luminescence, 11-dose single-agent curve fit; conditions: Homo sapiens, PSN1, 72 h, read-out: EC50 [nM]
Outline: as §3

[11] = system: HPDE; assay: cells; set-up: Viability of PDAC cell lines, ATPlite luminescence, 11-dose single-agent curve fit; conditions: HPDE, 72 h, read-out: EC50 [nM]
Outline: as §3

[12] = system: MiaPaCa-2; assay: cells; set-up: Viability of PDAC cell lines, ATPlite luminescence, 11-dose single-agent curve fit; conditions: Homo sapiens, MIA PaCa-2, 72 h, read-out: EC50 [nM]
Outline: as §3

[13] = system: PaTu-8988-T; assay: cells; set-up: Viability of PDAC cell lines, ATPlite luminescence, 11-dose single-agent curve fit; conditions: Homo sapiens, PaTu 8988t, 72 h, read-out: EC50 [nM]
Outline: as §3

[14] = system: FAMPAC; assay: cells; set-up: Viability of PDAC cell lines, ATPlite luminescence, 11-dose single-agent curve fit; conditions: 72 h, read-out: EC50 [nM]
Outline: as §3

[15] = system: Suit2-07; assay: cells; set-up: Viability of PDAC cell lines, ATPlite luminescence, 11-dose single-agent curve fit; conditions: 72 h, read-out: EC50 [nM]
Outline: as §3

[16] = system: 13 PDAC cell lines; assay: Phenotypic drug combination viability screen (ATPlite, 72 h), cell line panel; assay type: cell-based, human; conditions: for median AUC across all cell lines: single agent, 72 h
Procedure: as §1, §2

[17] = system: Dan-G cells; assay: Drug combination viability screen (ATPlite, 72 h); assay type: cell-based, human; conditions: Bliss model
Procedure: as §1, §2

[18] = system: Capan-1 cells; assay: Drug combination viability screen (ATPlite, 72 h); assay type: cell-based, human; conditions: Bliss model
Procedure: as §1, §2

[19] = system: AsPC-1; assay: cells; set-up: ATPlite luminescence viability of PDAC cell lines, 11-dose single-agent curves, 4-parameter fit; conditions: Homo sapiens, ASPC1, 72 h, read-out: EC50 [nM]
Outline: (§4)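 Drug-combination screening used cells plated at 1000 to 5000 per well one day before treatment. Final DMSO was 0.2%. Each plate held untreated negative-control wells and 5 µM staurosporine positive-control wells.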

[20] = system: Colo-357; assay: cells; set-up: ATPlite luminescence viability of PDAC cell lines, 11-dose single-agent curves, 4-parameter fit; conditions: Homo sapiens, COLO357, 72 h, read-out: EC50 [nM]
Outline: as §4

[21] = system: Capan-1; assay: cells; set-up: ATPlite luminescence viability of PDAC cell lines, 11-dose single-agent curves, 4-parameter fit; conditions: Homo sapiens, CAPAN-1, 72 h, read-out: EC50 [nM]
Outline: as §4

[22] = system: Dan-G; assay: cells; set-up: ATPlite luminescence viability of PDAC cell lines, 11-dose single-agent curves, 4-parameter fit; conditions: 72 h, read-out: EC50 [nM]
Outline: as §4

[23] = system: PANC-1; assay: cells; set-up: ATPlite luminescence viability of PDAC cell lines, 11-dose single-agent curves, 4-parameter fit; conditions: Homo sapiens, PANC-1, 72 h, read-out: EC50 [nM]
Outline: as §4

[24] = system: HuP-T4; assay: cells; set-up: ATPlite luminescence viability of PDAC cell lines, 11-dose single-agent curves, 4-parameter fit; conditions: Homo sapiens, HuP-T4, 72 h, read-out: EC50 [nM]
Outline: as §4

[25] = system: BxPC-3; assay: cells; set-up: ATPlite luminescence viability of PDAC cell lines, 11-dose single-agent curves, 4-parameter fit; conditions: Homo sapiens, BXPC-3, 72 h, read-out: EC50 [nM]
Outline: as §4

[26] = system: PSN-1; assay: cells; set-up: ATPlite luminescence viability of PDAC cell lines, 11-dose single-agent curves, 4-parameter fit; conditions: Homo sapiens, PSN1, 72 h, read-out: EC50 [nM]
Outline: as §4

[27] = system: HPDE; assay: cells; set-up: ATPlite luminescence viability of PDAC cell lines, 11-dose single-agent curves, 4-parameter fit; conditions: HPDE, 72 h, read-out: EC50 [nM]
Outline: as §4

[28] = system: MiaPaCa-2; assay: cells; set-up: ATPlite luminescence viability of PDAC cell lines, 11-dose single-agent curves, 4-parameter fit; conditions: Homo sapiens, MIA PaCa-2, 72 h, read-out: EC50 [nM]
Outline: as §4

[29] = system: PaTu-8988-T; assay: cells; set-up: ATPlite luminescence viability of PDAC cell lines, 11-dose single-agent curves, 4-parameter fit; conditions: Homo sapiens, PaTu 8988t, 72 h, read-out: EC50 [nM]
Outline: as §4

[30] = system: FAMPAC; assay: cells; set-up: ATPlite luminescence viability of PDAC cell lines, 11-dose single-agent curves, 4-parameter fit; conditions: 72 h, read-out: EC50 [nM]
Outline: as §4

[31] = system: Suit2-07; assay: cells; set-up: ATPlite luminescence viability of PDAC cell lines, 11-dose single-agent curves, 4-parameter fit; conditions: 72 h, read-out: EC50 [nM]
Outline: as §4

`CO[C@H]1C[C@@H]2CC[C@@H](C)[C@@](O)(O2)C(=O)C(=O)N2CCCC[C@H]2C(=O)O[C@H]([C@H](C)C[C@@H]2CC[C@@H](OP(C)(C)=O)[C@H](OC)C2)CC(=O)[C@H](C)/C=C(\C)[C@@H](O)[C@@H](OC)C(=O)[C@H](C)C[C@H](C)/C=C/C=C/C=C/1C` [Ridaforolimus] was tested, and the “synergy with GEM” value [1] was “synergized”, the “sensitization of HPDE cells to GEM” value [2] was “strongly sensitized” and the EC50 [3] was 0.22 nM. For the same molecule, the EC50 [4] was 127 nM, the EC50 [5] was 31.4 nM and the EC50 [6] was 87.2 nM. For the same molecule, the EC50 [7] was 4.17 nM, the EC50 [8] was 15.9 nM and the EC50 [9] was 0.13 nM. It also gave an EC50 [10] of 0.26 nM, an EC50 [11] of 0.56 nM and an EC50 [12] of 3.25 nM. The EC50 [13] was 0.04 nM, the EC50 [14] was 0.13 nM and the EC50 [15] was 118 nM. For the same molecule, the “median AUC across all cell lines” value [16] was greater than 80%, the “synergy with GEM” value [17] was “synergized” and the “synergy with GEM” value [18] was “synergized”.
In the case of `CC[C@@H]1C(=O)N(C)c2cnc(Nc3ccc(C(=O)N[C@H]4CC[C@H](N5CCN(CC6CC6)CC5)CC4)cc3OC)nc2N1C(C)C` [Volasertib], the “synergy with GEM (Bliss model, ΣAUC∆ > 10%)” value ([16]; any of the cell lines, GEM low and GEM high) is reported as “No synergy”, the “median AUC across all cell lines” value [16] is reported as 54% and the EC50 [19] is reported as 21.1 nM. For the same molecule, the EC50 [20] was 19.8 nM, the EC50 [21] was 32.3 nM and the EC50 [22] was 29.1 nM. The EC50 [23] was 37.7 nM, the EC50 [24] was greater than 10000 nM and the EC50 [25] was 25.2 nM. For the same molecule, the EC50 [26] was 16.4 nM, the EC50 [27] was greater than 10000 nM and the EC50 [28] was 12.8 nM. For the same molecule, the EC50 [29] was 33.8 nM, the EC50 [30] was 19.9 nM and the EC50 [31] was 19 nM.
In the case of `CO[C@H]1C[C@@H]2CC[C@@H](C)[C@@](O)(O2)C(=O)C(=O)N2CCCC[C@H]2C(=O)O[C@H]([C@H](C)C[C@@H]2CC[C@@H](O)[C@H](OC)C2)CC(=O)[C@H](C)/C=C(\C)[C@@H](O)[C@@H](OC)C(=O)[C@H](C)C[C@H](C)/C=C/C=C/C=C/1C` [Rapamycin], the “synergy with GEM” value [1] is reported as “synergized”, the “sensitization of HPDE cells to GEM” value [2] is reported as “strongly sensitized” and the EC50 [3] is reported as 50.8 nM. The EC50 [4] was 276 nM, the EC50 [5] was 0.11 nM and the EC50 [6] was 0.09 nM. It also gave an EC50 [7] of 4.67 nM, an EC50 [8] of 1.13 nM and an EC50 [9] of 0.08 nM. For the same molecule, the EC50 [10] was 0.05 nM, the EC50 [11] was 0.08 nM and the EC50 [12] was 1.11 nM. It also gave an EC50 [13] of 0.05 nM, an EC50 [14] of 1.59 nM and an EC50 [15] of 7.19 nM. The “median AUC across all cell lines” value [16] was greater than 80%, the “synergy with GEM” value [17] was “synergized” and the “synergy with GEM” value [18] was “synergized”.
In the case of `O=C(Cc1ccc(-c2ccc(OCCN3CCOCC3)cc2)cn1)NCc1ccccc1` [Tirbanibulin], the EC50 [8] is reported as 10300 nM, the “median AUC across all cell lines” value [16] is reported as 60% and the EC50 [19] is reported as 41.9 nM. The EC50 [20] was 37.7 nM, the EC50 [21] was 43.4 nM and the EC50 [22] was 31.9 nM. It also gave an EC50 [23] of 28.6 nM, an EC50 [25] of 29.9 nM and an EC50 [26] of 30.7 nM. For the same molecule, the EC50 [27] was 39.9 nM, the EC50 [28] was 26.3 nM and the EC50 [29] was 33 nM. For the same molecule, the EC50 [30] was 33.1 nM and the EC50 [31] was 45 nM.
With `CO[C@H]1C[C@@H]2CC[C@@H](C)[C@@](O)(O2)C(=O)C(=O)N2CCCC[C@H]2C(=O)O[C@H]([C@H](C)C[C@@H]2CC[C@@H](OCCO)[C@H](OC)C2)CC(=O)[C@H](C)/C=C(\C)[C@@H](O)[C@@H](OC)C(=O)[C@H](C)C[C@H](C)/C=C/C=C/C=C/1C` [Everolimus] the “synergy with GEM” value [1] was “synergized”, the “sensitization of HPDE cells to GEM” value [2] was “strongly sensitized” and the “median AUC across all cell lines” value [16] was greater than 80%. The “synergy with GEM” value [17] was “synergized” and the “synergy with GEM” value [18] was “synergized”.
